# Assay: Toxicokinetics and tissue disposition of total [14C] radioactivity after a single intratracheal dose of [14C]-PCB52 (0.157 mg/kg) in pregnant rats at GD 11±1
# Assay type: in vivo, Sprague–Dawley rats
# Experimental: Female Sprague–Dawley rats (8 weeks old) weighing 237–269.7 g (mean = 247.5 g) (Envigo RMS, LLC, Indianapolis, IN) were used for this study. All animal experiments were performed following the protocols evaluated and approved by the University of Iowa Institutional Animal Care and Use Committee (approval number 3091097). After arrival, the animals were acclimated for 7 days. The animals were housed in a light and temperature-controlled environment with ad libitum access to food and water during quarantine and throughout the study. Timed pregnancy was achieved by harem mating. , Briefly, one male and two female rats were placed together in the evening and checked for vaginal plug the following day. If vaginal plug was present, the male was removed from the breeding cage, and the gestation day 0 (GD 0), 0-day post coitum was assigned. Pregnancies were confirmed by ultrasound scan at GD 9. The dams were exposed at GD 11 (±1 day) to capture the period of early organogenesis and hormonal function, which falls within week 3 of human embryonic development. ,− On the day of the experiment, pregnant rats were intratracheally administered an average of 40 μg (range, 35–45 μg) of [^14C]-PCB52 in 100 μL of exposure solution. Although the dose used in this study exceeded the tolerable daily intake (TDI) of PCBs for healthy individuals, which is 1.6 μg per day for an individual weighing 80 kg, the use of higher acute doses has been established in toxicological studies intended for risk assessment. The intratracheal instillation method was chosen for administering [^14C]-PCB52 to represent inhalation exposures, capture exhaled concentration, and efficiently utilize the limited availability of the cost-intensive radiolabeled PCB52. , Although inhalation exposure would better represent real-world exposures to airborne LC-PCBs, it would not allow us to accurately measure the amount of PCB52 exhaled into the air after exposure and is experimentally infeasible. […] All intratracheal instillations were done under light anesthesia, achieved using a 4% isoflurane concentration via a Fortec vaporizer (Cyprane, Keighley, UK). The animals recovered from anesthesia within 1 min. Subsequently, the animals were housed within a cylindrical glass chamber measuring 2 L in volume, equipped with glass drainage mechanisms to facilitate urine collection and a metallic screen to segregate urine from feces (as in Figure S1). Air was drawn from the chamber at 6.0 L/min through a cartridge containing the XAD-2 polymeric resin to capture any exhaled [^14C]-PCB52. For periods longer than 24 h postexposure, exposed dams were placed in a metabolic cage, which was fitted with a cartridge containing XAD-2 to capture exhaled [^14C]-PCB52 as in other end points.
# Maternal blood, urine, and feces samples were collected immediately before and at 0.21, 1.67, 12, 24, 48, and 96 h after lung dosing. The exposed dams were euthanized using 4% isoflurane, followed by cervical dislocation and exsanguination via a cardiac puncture. Euthanasia was consistently performed during the light cycle. Dams’ fur was wiped and analyzed for radioactivity. Using the retro-orbital blood collection method, 0.5–1.5 mL ([…] of an exposed pregnant rat’s body weight) of blood sample was collected from each of the dams until the individual dams were necropsied for whole-body tissue harvesting. At the end of the exposure period, the chamber’s interior walls were rinsed separately with water and acetone/hexane (25 – 45 mL) and wiped to measure residues. From the collected whole blood samples, 100 μL were aliquoted into three vials each, and the remaining blood was allowed to clot at room temperature before being centrifuged to yield serum. The placentas, developing fetuses, and whole-body tissue samples were harvested immediately before exposure and at 0.21, 1.67, 12, 24, and 96 h postexposure. […]
# [1] = Salivary gland, 0.21 h post-exposure
# [2] = Salivary gland, 1.67 h post-exposure
# [3] = Salivary gland, 12 h post-exposure
# [4] = Salivary gland, 24 h post-exposure
# [5] = Salivary gland, 96 h post-exposure
# [6] = mammary gland/MS (maternal serum)
# [7] = ratios of toxicokinetic parameters
structure (smiles),measurement,setting,value
"Clc1ccc(Cl)c(-c2cc(Cl)ccc2Cl)c1 [PCB52, 2,2′,5,5′-Tetrachlorobiphenyl]",Percent tissue distribution,"Ovary, 0.21 h post-exposure",0.20%
same,Conc. per mg wet tissue,"Ovary, 1.67 h post-exposure",7.08 dpm/mg
same,Percent tissue distribution,"Ovary, 1.67 h post-exposure",0.08%
same,Conc. per mg wet tissue,"Ovary, 12 h post-exposure",1.61 dpm/mg
same,Percent tissue distribution,"Ovary, 12 h post-exposure",0.02%
same,Conc. per mg wet tissue,"Ovary, 24 h post-exposure",5.24 dpm/mg
same,Percent tissue distribution,"Ovary, 24 h post-exposure",0.05%
same,Percent tissue distribution,"Ovary, 96 h post-exposure",0.02%
same,AUC_%Extrap,Pancreas,37.26%
same,Terminal elimination half-life (t1/2),Pancreas,67.74 h
same,Conc. per mg wet tissue,"Pancreas, 0.21 h post-exposure",14.81 dpm/mg
same,Percent tissue distribution,"Pancreas, 0.21 h post-exposure",0.91%
same,Conc. per mg wet tissue,"Pancreas, 1.67 h post-exposure",4.88 dpm/mg
same,Percent tissue distribution,"Pancreas, 1.67 h post-exposure",0.39%
same,Conc. per mg wet tissue,"Pancreas, 12 h post-exposure",1.83 dpm/mg
same,Percent tissue distribution,"Pancreas, 12 h post-exposure",0.07%
same,Conc. per mg wet tissue,"Pancreas, 24 h post-exposure",5.17 dpm/mg
same,Percent tissue distribution,"Pancreas, 24 h post-exposure",0.30%
same,Conc. per mg wet tissue,"Pancreas, 96 h post-exposure",38.84 dpm/mg
same,Percent tissue distribution,"Pancreas, 96 h post-exposure",0.14%
same,Tmax,Pituitary gland,96 h
same,AUC_%Extrap,Rectal Amp.,62.17%
same,Terminal elimination half-life (t1/2),Rectal Amp.,133.61 h
same,AUC_%Extrap,Salivary gland,44.09%
same,Terminal elimination half-life (t1/2),Salivary gland,84.60 h
same,Tmax,Salivary gland,≤ 0.21 h
same,Conc. per mg wet tissue,[1],8.48 dpm/mg
same,Percent tissue distribution,[1],0.39%
same,Conc. per mg wet tissue,[2],2.93 dpm/mg
same,Percent tissue distribution,[2],0.18%
same,Conc. per mg wet tissue,[3],1.44 dpm/mg
same,Percent tissue distribution,[3],0.04%
same,Conc. per mg wet tissue,[4],2.06 dpm/mg
same,Percent tissue distribution,[4],0.06%
same,Conc. per mg wet tissue,[5],0.34 dpm/mg
same,Percent tissue distribution,[5],0.04%
same,AUC_%Extrap,Skin,30.85%
same,Terminal elimination half-life (t1/2),Skin,58.90 h
same,AUC_%Extrap,Small Intestine,25.66%
same,Terminal elimination half-life (t1/2),Small Intestine,47.33 h
same,AUC_%Extrap,Spleen,35.06%
same,Terminal elimination half-life (t1/2),Spleen,55.79 h
same,Conc. per mg wet tissue,"Spleen, 0.21 h post-exposure",13.12 dpm/mg
same,Percent tissue distribution,"Spleen, 0.21 h post-exposure",0.29%
same,Conc. per mg wet tissue,"Spleen, 1.67 h post-exposure",3.05 dpm/mg
same,Percent tissue distribution,"Spleen, 1.67 h post-exposure",0.12%
same,Conc. per mg wet tissue,"Spleen, 12 h post-exposure",2.62 dpm/mg
same,Percent tissue distribution,"Spleen, 12 h post-exposure",0.04%
same,Conc. per mg wet tissue,"Spleen, 24 h post-exposure",5.75 dpm/mg
same,Percent tissue distribution,"Spleen, 24 h post-exposure",0.07%
same,Conc. per mg wet tissue,"Spleen, 96 h post-exposure",0.87 dpm/mg
same,Percent tissue distribution,"Spleen, 96 h post-exposure",0.03%
same,AUC_%Extrap,Stomach,15.03%
same,Terminal elimination half-life (t1/2),Stomach,32.02 h
same,Tmax,Stomach,≤ 0.21 h
same,Conc. per mg wet tissue,"Stomach, 0.21 h post-exposure",36.55 dpm/mg
same,Percent tissue distribution,"Stomach, 0.21 h post-exposure",0.71%
same,Conc. per mg wet tissue,"Stomach, 1.67 h post-exposure",17.01 dpm/mg
same,Percent tissue distribution,"Stomach, 1.67 h post-exposure",0.23%
same,Conc. per mg wet tissue,"Stomach, 12 h post-exposure",4.80 dpm/mg
same,Percent tissue distribution,"Stomach, 12 h post-exposure",0.33%
same,Conc. per mg wet tissue,"Stomach, 24 h post-exposure",6.56 dpm/mg
same,Percent tissue distribution,"Stomach, 24 h post-exposure",0.44%
same,Conc. per mg wet tissue,"Stomach, 96 h post-exposure",2.28 dpm/mg
same,Percent tissue distribution,"Stomach, 96 h post-exposure",0.10%
same,AUC_%Extrap,Thymus,25.14%
same,Terminal elimination half-life (t1/2),Thymus,53.40 h
same,AUC_%Extrap,Thyroid,12.95%
same,Terminal elimination half-life (t1/2),Thyroid,37.74 h
same,Conc. per mg wet tissue,"Tongue, 0.21 h post-exposure",0.16 dpm/mg
same,Percent tissue distribution,"Tongue, 0.21 h post-exposure",0.67%
same,Conc. per mg wet tissue,"Tongue, 1.67 h post-exposure",4.42 dpm/mg
same,Percent tissue distribution,"Tongue, 1.67 h post-exposure",0.0003%
same,Conc. per mg wet tissue,"Tongue, 12 h post-exposure",1.08 dpm/mg
same,Percent tissue distribution,"Tongue, 12 h post-exposure",0.06%
same,Conc. per mg wet tissue,"Tongue, 24 h post-exposure",1.03 dpm/mg
same,Percent tissue distribution,"Tongue, 24 h post-exposure",0.05%
same,Conc. per mg wet tissue,"Tongue, 96 h post-exposure",0.16 dpm/mg
same,Percent tissue distribution,"Tongue, 96 h post-exposure",0.01%
same,Conc. per mg wet tissue,"Trachea, 0.21 h post-exposure",142.06 dpm/mg
same,Percent tissue distribution,"Trachea, 0.21 h post-exposure",0.83%
same,Conc. per mg wet tissue,"Trachea, 1.67 h post-exposure",40.98 dpm/mg
same,Percent tissue distribution,"Trachea, 1.67 h post-exposure",0.24%
same,Conc. per mg wet tissue,"Trachea, 12 h post-exposure",13.20 dpm/mg
same,Percent tissue distribution,"Trachea, 12 h post-exposure",0.08%
same,Conc. per mg wet tissue,"Trachea, 24 h post-exposure",6.29 dpm/mg
same,Percent tissue distribution,"Trachea, 24 h post-exposure",0.04%
same,Conc. per mg wet tissue,"Trachea, 96 h post-exposure",1.03 dpm/mg
same,Percent tissue distribution,"Trachea, 96 h post-exposure",0.01%
same,AUC_%Extrap,Uterus,17.37%
same,Terminal elimination half-life (t1/2),Uterus,34.85 h
same,Conc. per mg wet tissue,"Uterus, 0.21 h post-exposure",0.37 dpm/mg
same,Percent tissue distribution,"Uterus, 0.21 h post-exposure",0.21%
same,Conc. per mg wet tissue,"Uterus, 1.67 h post-exposure",2.43 dpm/mg
same,Percent tissue distribution,"Uterus, 1.67 h post-exposure",0.11%
same,Conc. per mg wet tissue,"Uterus, 12 h post-exposure",0.93 dpm/mg
same,Percent tissue distribution,"Uterus, 12 h post-exposure",0.06%
same,Conc. per mg wet tissue,"Uterus, 24 h post-exposure",2.20 dpm/mg
same,Percent tissue distribution,"Uterus, 24 h post-exposure",0.16%
same,Conc. per mg wet tissue,"Uterus, 96 h post-exposure",0.37 dpm/mg
same,Percent tissue distribution,"Uterus, 96 h post-exposure",0.13%
same,AUC_% extrap,amniotic fluid,7.8%
same,AUC_%Extrap,amniotic fluid,8.11%
same,Terminal elimination half-life (t1/2),amniotic fluid,26.38 h
same,maternal serum exposure ratio,amniotic fluid,0.05
same,AUC0–96h ratio,brain/MS (maternal serum),0.672
same,C max ratio,brain/MS (maternal serum),0.598
same,AUC0–96h ratio,brain/thyroid,0.276
same,C max ratio,brain/thyroid,0.298
same,concentration in brown adipose relative to white adipose,brown vs white adipose,five times higher
same,biological half-life,dams,less than 2 days
same,biological half-life,developing fetuses,less than 2 days
same,AUC0‑∞ ratio,fetus/AF (amniotic fluid),5.472
same,AUC0–96h ratio,fetus/AF (amniotic fluid),5.405
same,C max ratio,fetus/AF (amniotic fluid),5.767
same,AUC0–96h ratio,fetus/MS (maternal serum),0.100
same,C max ratio,fetus/MS (maternal serum),0.135
same,AUC0‑∞ ratio,fetus/mammary gland,46.45
same,AUC0–96h ratio,fetus/mammary gland,43.42
same,C max ratio,fetus/mammary gland,11.47
same,AUC0‑∞ ratio,fetus/ovary,0.078
same,AUC0–96h ratio,fetus/ovary,0.094
same,C max ratio,fetus/ovary,0.163
same,AUC0–96h ratio,fetus/pituitary,0.026
same,C max ratio,fetus/pituitary,0.052
same,AUC0‑∞ ratio,fetus/placenta,0.569
same,AUC0–96h ratio,fetus/placenta,0.538
same,C max ratio,fetus/placenta,0.778
same,AUC0‑∞ ratio,fetus/thymus,0.125
same,AUC0–96h ratio,fetus/thymus,0.152
same,C max ratio,fetus/thymus,0.314
same,AUC0‑∞ ratio,fetus/thyroid,8.805
same,AUC0–96h ratio,fetus/thyroid,8.445
same,C max ratio,fetus/thyroid,8.150
same,AUC0‑∞ ratio,[6],12.59
same,AUC0–96h ratio,[6],12.52
same,C max ratio,[6],2.822
same,AUC_% extrap,maternal serum,14.2%
same,blood-to-plasma ratio,observed experimental,0.53
same,AUC0–96h ratio,ovary/MS (maternal serum),3.043
same,C max ratio,ovary/MS (maternal serum),1.512
same,AUC0–96h ratio,pituitary/MS (maternal serum),11.289
same,C max ratio,pituitary/MS (maternal serum),4.741
same,AUC0–96h ratio,pituitary/thymus,5.933
same,C max ratio,pituitary/thymus,4.114
same,AUC_% extrap,placenta,4.1%
same,AUC_%Extrap,placenta,4.14%
same,Terminal elimination half-life (t1/2),placenta,21.11 h
same,maternal serum exposure ratio,placenta,0.5
same,AUC0‑∞ ratio,placenta/MS (maternal serum),0.477
same,AUC0–96h ratio,placenta/MS (maternal serum),0.536
same,C max ratio,placenta/MS (maternal serum),0.316
same,time at which brown/white adipose concentration ratio reached unity,postexposure,24 h
same,amniotic fluid-to-fetus ratio,[7],< 1
same,fetus-to-amniotic fluid ratio,[7],> 5
same,AUC0‑∞ ratio,thymus/MS (maternal serum),2.169
same,AUC0–96h ratio,thymus/MS (maternal serum),1.903
same,C max ratio,thymus/MS (maternal serum),1.152
same,AUC0‑∞ ratio,thyroid/MS (maternal serum),2.387
same,AUC0–96h ratio,thyroid/MS (maternal serum),2.435
same,C max ratio,thyroid/MS (maternal serum),2.005
same,AUC0‑∞ ratio,uterus/MS (maternal serum),0.917
same,AUC0–96h ratio,uterus/MS (maternal serum),0.888
same,C max ratio,uterus/MS (maternal serum),0.296
same,AUC0‑∞ ratio,uterus/ovary,0.262
same,AUC0–96h ratio,uterus/ovary,0.292
same,C max ratio,uterus/ovary,0.196

# From publication PMC12794188, “Maternal–Fetal Transfer and Toxicokinetics of 2,2′,5,5′-Tetrachlorobiphenyl, [^14C]-PCB52, Following Intratracheal Administration” (Chemical Research in Toxicology, 2025)
